Consider 13 compounds from patent US20230212216A1, “SYNTHESIS OF LACTONE DERIVATIVES AND THEIR USE IN THE MODIFICATION OF PROTEINS” (priority 2019, published 2023).

Data set [1] relates to N-terminally gluconoyl-labelled Beltide-1 derivative peptide PP6. In words: Boron-containing reagents to modulate reversibility (heat-accelerated deacylation). The class given is physicochemical. Particulars: 5 mM additive, 50 μM peptide; for Remaining gluconoyl-label, pH 7.5 after 15 h at 50° C.: 50 mM HEPES/NaOH buffer; for Remaining gluconoyl-label, pH 6.8 after 15 h at 50° C.: 50 mM phosphate/KOH buffer. The procedure: To explore the reversibility modulating effect of various boron-containing molecules, a small library of reagents was tested at pH 7.5 (50 mM HEPES/NaOH buffer) and pH 6.8 (50 mM phosphate/KOH buffer).
Reaction supplemented with 5 mM of additive; calculated as the ratio of the TIC for the labelled divided by the sum of TICs of both labelled and unlabeled species.

The subject of data set [2] is 6-AGDL acylated GSS-H6-Beltide-1. The procedure: The volume was then made up to 15 mL to give a 1 M stock solution.
pH 6 buffer was made by preparing a 1 M stock solution of citric acid monohydrate and by making a solution of 1 M sodium citrate dihydrate. The two solutions were mixed to give a 1 M stock solution of pH 6.
pH 7.5 buffer was made by mixing a 1 M stock solution of potassium phosphate monobasic with 1 M solution of potassium phosphate dibasic to give a pH of 7.5.
pH 8.8 buffer was prepared by titrating 1 M solution of acetic acid with ammonium solution to give pH 8.8.
20 μM 6-AGDL modified peptide was stored in 100 μL aliquots in 200 mM buffer as indicated. The vials (triplicates) were incubated in a 37° C. water bath throughout the experiment and were retrieved for sample acquisition for <30 mins at room temperature before they were returned to the water bath.
10 μL of subsamples for pH 4, 6 and 8.8 were acidified with 5 μL of 20% (v/v) acetic acid and subjected to C18 ZipTip purification. Samples were analyzed in positive reflectron mode with MALDI-TOF MS.
pH 7.5 samples were stored in the presence of 10% ACN (v/v) to counteract precipitation. For pH 7.5 samples, 15 μL aliquots were taken for each time point and desalted using 0.1% TFA-70% ACN/0.1% TFA C18 Zip-Tip procedure. 0.5 μL of the Eluate was mixed 1:1 with C1CCA matrix mixture and spotted onto a MALDI steel target prior to detection in reflector positive mode MALDI-TOF MS.

Data set [3] relates to serine protease trypsin. Particulars: 50 mM boric acid.
Data set [4] concerns GDL acylated G-H6-Beltide-1. In words: Effect of copper ions on reversibility of acylation. The class given is physicochemical. Particulars: various CuSO4 concentrations, pH 7.5, 37° C. The procedure: FIG. 3: Reversibility of GDL:G-H6-Beltide-1 in the presence of various CuSO4 and EDTA concentrations at pH 7.5. GDL acylated G-H6-Beltide-1 was produced as before, extra GDL was removed by C18 reverse phase purification and the acylated peptide (20 μM) was stored in 50 mM HEPES (NaOH) buffer supplemented with various concentrations of CuSO4 and EDTA at 37° C. Change in acylation status was monitored by MALDI-TOF MS TIC and is reported as the relative m/z ratio of the acylated (m1) and non-acylated species (m2) ([m1/z/(m1/z+m2/z)]*100%).
1 mM G-H6-Beltide-1 (˜1 mg of peptide) was acylated with 100 mM GDL in 200 mM HEPES (NaOH) pH 7.5 for 1 h at room temperature in a total volume of ˜300 μL. Upon addition of buffer to peptide but before addition of GDL, precipitation was clearly observed. This precipitation may be due to the theoretical pI of G-H6-Beltide-1 being close to pH 7.5, or because G-H6-Beltide-1 is a Beltide-1 variant. Beltide-1 is known to form nanodiscs in solution upon contact with membrane proteins or lipid components (Midtgaard et al. 2014; Martos-Maldonado et al. 2018). GDL was added to 100 mM from a freshly prepared 1 M stock solution. The solution remained cloudy. […] The acylated peptide was analyzed by MALDI-MS and initial acylation extent was estimated to be ˜96%, stored at −20° C. until further usage. […]

Data set [5] relates to GDL-acylated GSS-H6-Beltide-1 peptide. The data set can be described thus: Effect of zinc ions on reversibility of acylation. Particulars: day 7. The class given is physicochemical. The procedure:
GSS-H6-Beltide-1 peptide was GDL-acylated and extra GDL was removed via C18 SepPack chromatography. GDL:peptide was dissolved in 100 mM HEPES (NaOH), pH 7.5 with or without ZnSO4 (0.2 mM and 2 mM) to a final concentration of ˜100 μM. ACN was added to 10% v/v to reduce possible nanodisc formation and precipitation of the peptide to the plastic microcentrifuge wall. The reaction mixtures (100 μL volume each) were kept in a water bath at 37° C. Aliquots of 2 μL were taken at day 3, mixed with 10 μL of 5% acetic acid, purified by C18 ZipTip chromatography and analyzed by MALDI-TOF-MS instrumentation. […] The remaining reaction mixture (80 μL) was acidified by adding 50% (v/v) acetic acid. The amount of acetic acid to be added was calculated as 20% of the remaining reaction volume [final concentration 7.57% acetic acid v/v]. Likewise, 10% reaction volume of 100% acetonitrile were added (final concentration acetonitrile ˜16.6% v/v) and the reaction was mixed by quick vortexing. Of this mixture, 15 μL aliquots were processed via C18 ZipTip chromatography and analyzed by MALDI-TOF-MS instrumentation. We speculate that the peptide had bound to the microcentrifuge wall and assumed that the precipitation affected both acylated and non-acylated species equally.

Data set [6] is described as follows: Reversibility of 6-AGDL acylated G-H6 and non-His-tagged peptides. The class given is physicochemical. Particulars: 6-AGDL acylated peptide, 14 days at room temperature, 1M HEPES pH 7.5. The procedure:
100 μM of G-H6-Beltide-1, GGKWSKR-Beltide-1 and GGTYSDH-Beltide-1 peptides were reacted at 4° C. with 6-AGDL in 1M HEPES, pH 7.5 by sequentially adding 100 mM 6-AGDL twice in 3 h intervals. Extra 6-AGDL was not removed, and the samples were stored at room temperature throughout the experiment.
2 μL from each sample were taken at each time point except for day 14. 10 μL of 2% acetic acid was added to each timepoint sample and the mixtures were desalted by C18 ZipTip chromatography. Eluate was analyzed by MALDI-TOF MS as before.
At day 14 the remaining samples underwent recovery procedure where all of the reaction mixtures were acidified by adding 20% of reaction volume of 50% (v/v) acetic acid [final concentration 7.57% acetic acid (v/v)] and then adding 10% reaction volume of 100% acetonitrile [final concentration ACN […]]. Of this mixture, 15 μL aliquots were taken, cleaned by ZipTip C18 Chromatography and analyzed by MALDI-TOF-MS instrumentation.

For data set [7], the system named is non-activated HEK-produced RBD. The data set can be described thus: Endpoint anti-RBD ELISA of sera of immunized mice. Further details: species or system SARS-CoV-2. As to conditions: in vivo. (In general: An ELISA detects its analyte on a solid surface through an enzyme-linked reagent.)
For data set [8], the system named is Pseudovirus. The data set can be described thus: Pseudovirion neutralization assay. As to conditions: mice sera day 42, after a total of 3 immunizations. The format is cell-based, SARS-CoV-2. The procedure: The conjugate material was then used to immunize mice at 10 μg per dose formulated in AddaVax (Invivogen) according to the manufacturer on Day 0. Boosts with the same dose and formulation were performed on day 14 and day 28. Sera samples were taken before each immunization for immunological studies. Animals were sacrificed on day 42.
Pseudovirion neutralization assays were performed with samples obtained at day 42 according to standard procedures known in the art.

The test system of data set [9] is GDL-acylated GSS-H6-Beltide-1 peptide. The data set can be described thus: Effect of nickel ions on reversibility of acylation. The format is physicochemical. Particulars: 0.01-1 mM NiSO4, pH 7.5, 37° C., up to day 7. The procedure: GSS-H6-Beltide-1 peptide was GDL-acylated and extra GDL was removed via C18 SepPack chromatography. GDL-acylated peptide was dissolved in 100 mM HEPES (NaOH), pH 7.5, 10% ACN (v/v) to a final concentration of ˜100 μM and aliquoted into 0.5 mL LoBind (Eppendorf) microcentrifuge tubes. NiSO4 was supplemented to 0, 0.01, 0.1, and 1 mM final concentration from a 100 mM NiSO4 stock in H2O. A control sample was supplemented with a pre-mixed solution of NiSO4 and EDTA, to give a final concentration of 1 mM NiSO4 and 5 mM EDTA [stock solution 10 mM NiSO4 and 50 mM EDTA (NaOH neutralized)]. The samples (50 μL volume each) were kept in a water bath at 37° C. Aliquots of 2 μL were taken on day 1, 3, 5, and 7, mixed with 10 μL of 5% acetic acid, purified by C18 ZipTip chromatography and analyzed by MALDI-TOF-MS instrumentation.

Where two headings read alike, the source gives them in different places. Where no end group is shown, it is not given here.

Regarding `OB(O)O` [boric acid, Boric acid], the “Remaining gluconoyl-label, pH 7.5 after 15 h at 50° C.” value in [1] was around 69%. Further, in data set [1], the “Remaining gluconoyl-label, pH 6.8 after 15 h at 50° C.” value is reported as around 8%. The reversibility of acylation entry is on record as “effectively inhibited” in [2] (>50 mM boric acid, pH 8.8, 7 days, 37° C.); “no effect was observed” in data set [2] (pH 4, 37° C.); “modulated the reversibility” in data set [2] (pH 6, 37° C.). Besides, the inhibition of trypsin entry in [3] was “did not measurably inhibit”.

For the compound `OB1OCc2cc(F)ccc21` [tavaborole, 5-Fluoro-1,3-dihydro-1-hydroxy-2,1-benzoxaborole], in data set [1], the “Remaining gluconoyl-label, pH 7.5 after 15 h at 50° C.” value was around 87% and the “Remaining gluconoyl-label, pH 6.8 after 15 h at 50° C.” value was around 87.9%.

Take `O=Cc1ccc(B(O)O)cc1` [4-formylphenylboronic acid]: in data set [1], the “Remaining gluconoyl-label, pH 7.5 after 15 h at 50° C.” value is recorded as around 95% and the “Remaining gluconoyl-label, pH 6.8 after 15 h at 50° C.” value was around 46%.

Take `O=S(=O)([O-])[O-].[Cu+2]` [CuSO4]: the rate of reversibility result in data set [4] is listed as “decreasing rate of reversibility as a function of increasing CuSO4 concentration”.

Consider `O=S(=O)([O-])[O-].[Zn+2]` [ZnSO4], for which the remaining gluconoylation in [5] (0.2 mM ZnSO4, pH 7.5, 37° C.) is around 80%; in data set [5] (2 mM ZnSO4, pH 7.5, 37° C.), around 75%.

On to `O=Cc1ccccc1B(O)O` [2-formylphenylboronic acid], for which, in [1], the “Remaining gluconoyl-label, pH 7.5 after 15 h at 50° C.” value is given as around 99% and the “Remaining gluconoyl-label, pH 6.8 after 15 h at 50° C.” value is reported as around 95%.

In [6], “GGKWSKRDWLKAFYDKVAEKLKEAF [GGKWSKR-Beltide-1]” came in with a remaining acylation of around 64%.

Turning to “Qbeta: Qbeta VLPs (SEQ ID NO: 86) produced in E. coli”, the “anti-RBD response (ELISA titers) after a single injection” value in data set [7] is “did not show a measurable response”. For the same compound, the “% of neutralization at dilution 1:300” value in data set [8] worked out at 17.24%.

With GHHHHHHDWLKAFYDKVAEKLKEAF [PP1], in data set [6], the remaining acylation is 27%.

For the compound `O=S(=O)([O-])[O-].[Ni+2]` [NiSO4], in [9], the reversibility of acylation entry is reported as “seemingly abolished reversibility”.

In [6], “GGTYSDHDWLKAFYDKVAEKLKEAF [GGTYSDH-Beltide-1]” showed a remaining acylation of 75%.

In the case of `CB(O)O` [methylboronic acid], in data set [1], the “Remaining gluconoyl-label, pH 7.5 after 15 h at 50° C.” value was around 59% and the “Remaining gluconoyl-label, pH 6.8 after 15 h at 50° C.” value is reported as around 6%.

Consider `OB(O)c1ccccc1` [phenylboronic acid], for which, in data set [1], the “Remaining gluconoyl-label, pH 7.5 after 15 h at 50° C.” value is given as around 83% and the “Remaining gluconoyl-label, pH 6.8 after 15 h at 50° C.” value is recorded as around 31%.
